From the OPERA property sets (Mansouri et al. 2018)

Compound | logP
Cc1c(N(C)C)c(=O)[nH]c(=O)n1-c1ccccc1 | 1.4
CCCCC1OC(=O)c2cc(N(CCO)CCO)ccc21 (stereo not given) | 1.34
O=[N+]([O-])c1ccc(/C=C/c2cccc(CO)n2)o1 | 1.37
CC(=O)N(C)c1ccc(S(=O)(=O)N(C)C)cc1 | 0.23
COc1cccc(CC(C)N)c1OC (stereo not given) | 1.49
Cc1oc2ccccc2c(=O)c1C | 2.31
O=C(OCCNC(=O)C(F)(F)F)c1ccccc1 | 2.25
CC(=O)Nc1cccc(I)c1 | 2.64
CNC(=O)Oc1cccc(Cl)c1Cl | 2.48
COC(=O)c1cccc(NC(C)=O)c1 | 1.46
NC(=O)NN=Cc1ccccc1 | 1.27
NC(=O)c1ncccc1O | 0.65
S=c1cc[nH]cc1 | 0.2
COC(=O)CCC(=O)N(C)c1ccc(S(=O)(=O)N(C)C)cc1 | 0.43
CN(C)N=Nc1cn(C2OC(CO)C(O)C2O)c(=O)[nH]c1=O (stereo not given) | -1.82
C#CCCC(=O)N(C)c1ccc(S(=O)(=O)N(C)C)cc1 | 0.88
COc1ccc2c(=O)c(C)c(C(C)C)oc2c1 | 3.39
CN(C)N=CCCc1ccccc1 | 2.05
CCOC(CP(=O)(OCC)OCC)OCC | 0.69
c1ccc(CSc2cnn[nH]2)cc1 | 2.65
O=C1C=CC(=NCl)C=C1 | 1.26
NC1=NC(C(F)(F)F)(C(F)(F)F)NC1(C(F)(F)F)C(F)(F)F | 3.35
COc1cc(C=NO)ccc1OCCOC(=O)c1cccc(Cl)c1 | 3.94

Compound | logP
CSC(=O)Nc1ccccc1 | 2.4
c1ccc(CSc2nnc[nH]2)cc1 | 1.45
O=c1cc(-c2ccccc2)oc2cc(O)ccc12 | 3.62
O=C(Nc1ccc(Cl)c(Cl)c1)C1CCCCC1 | 4.72
COc1cc(C=O)ccc1OCCOC(=O)c1cccc(Cl)c1 | 3.67
O=c1cn[nH]c(=O)[nH]1 | -0.59
CC(C)(C)/[N+]([O-])=C/c1ccccc1 | 1.26
COc1ccccc1C=CC(=O)OCCOc1ccc(C=O)cc1OC | 3.65
O=C(Nc1ccc(Cl)c(Cl)c1)C(F)F | 3.18
NNc1ccc(Br)cc1 | 1.39
FC(F)(F)C(F)(F)C(F)(F)C(F)(F)C(F)(F)F | 4.4
COCCN(N=Nc1[nH]cnc1C(N)=O)C(C)(C)C | 1.14
CC(=O)Nc1ccc2c(=O)c(C)c(C)oc2c1[N+](=O)[O-] | 1.61
CC(C)(C)C(=O)Nc1ccc(Cl)c(Cl)c1 | 3.88
CCCCCC1CNC(C(=O)NC(C(C)Cl)C2OC(SC)C(O)C(O)C2O)C1 (stereo not given) | 2.74
CCCc1c(OCCCCc2nnn[nH]2)ccc(C(C)=O)c1O | 3.82
CC(=O)Nc1cccc(OCc2cccc(N3C(N)=NC(N)=NC3(C)C)c2)c1 | 1.15
NCC(=O)NCC(=O)NCC(=O)O | -2.68
Cc1ccc(Cc2c[nH]c(NCCCCc3ccc(Br)cc3C)nc2=O)cn1 | 3.61
CC(=O)Nc1ccc(Oc2ccccc2)cc1 | 3.13
CN(Cc1ccccc1)N=Nc1[nH]cnc1C(N)=O | 1.54
O=c1[nH]cc(I)c(=O)[nH]1 | 0.04
